According to patent US9863953B2, “Method for determining prognosis of cancer” (KYOTO UNIVERSITY, priority 2013, dated 2018):
Entries after “also recorded” stand apart in the source; their conditions may differ.

Assays:
RKO human CRC cells [1] = assay: Matrigel invasion assay, RKO cells; assay type: cell-based; details: for Matrigel invasion of RKO cells: inhibitor treatment 16 h prior to assay
Protocol: (§1) Matrigel invasion assays were performed as previously described using Matrigel (BD) {Sonoshita, 2011}. For TEM assay, human umbilical vein endothelial cell (HUVEC) was seeded in the upper chamber of Transwell (Corning). One day (24 h) later, EGFP-labeled CRC cells were plated onto the layer of HUVEC. After 24 h, CRC cells migrated to the lower side of the membrane were counted under a fluorescent microscope.

HCT116 cells [2] = assay: Matrigel invasion assay, HCT116 cells; assay type: cell-based, human
Protocol: as §1

HCT116 = assay: Transendothelial migration (TEM) assay, HCT116 cells; assay type: cell-based, human; details: HCT116, data not shown
Protocol: as §1

RKO human CRC cells [3] = assay: Transendothelial migration (TEM) assay, RKO cells; assay type: cell-based; details: inhibitor treatment 16 h prior, HUVEC layer, 24 h
Protocol: as §1

DAB1 = DAB1 mRNA quantitative RT-PCR in LS174T cells on rDLL4; assay type: cell-based, human
Protocol: (§2) Recombinant DLL4 (rDLL4) (R&D) was resuspended with PBS. For scratch and GTP-Rho pull-down assays, 1 μg was put into 6-well culture plate to coat its surface with rDLL4 at 0.1 μg/cm^2. For q-RT-PCR assays, the plate surface was coated with rDLL4 at 0.1-1 μg/cm^2. After overnight incubation at 4-degree, the plates were washed once with PBS and plated with CRC cells. For expression analysis of HES1 and DAB1, cells were lysed and mRNA was extracted after four hours.
TaqMan primers/probes for quantification of HES1, DAB1, ABL1, and ABL2 mRNAs were purchased from ABI. ChIP analyses were performed by using CRC cells and anti-Rbpj (Institute of Immunology) and anti-NICD (Cell Signaling Technology) antibodies according to published protocol (Kakizaki et al., 2010). Precipitated fragments of genomic DNA were tested for enrichment of promoter regions of HES1 gene by SYBR green (ABI) using hHES1ChIP.F ([…]) (SEQ ID NO: 4) and hHES1ChIP.R ([…]) (SEQ ID NO: 5) primers that sandwich high affinity binding sequence of Rbpj. Similarly, enrichment of DAB1 promoter fragments was quantified by hDAB1ChIP.F2 ([…]) (SEQ ID NO: 6) and hDAB1ChIP.R2 ([…]) (SEQ ID NO: 7) primers.

Rho = assay: Active Rho (GTP-Rho) pull-down assay in RKO cells; assay type: cell-based, human
Protocol: GTP-Rho was pulled-down and detected by using Rho activation assay kit (Thermo) according to the manufacturers' protocol. Briefly, tissues or CRC cells were lysed with lysis buffer, and GTP-Rho in the lysates was pulled-down using Rhotekin and detected by anti-Rho antibody in western analysis.
as §2
(§3) Cultured CRC cells were washed with PBS, treated with 10 mM EDTA in PBS for 2 minutes, and incubated again in culture media. […] After incubation for defined period, cells were lysed and cleaved Notch and GTP-Rho was detected. DAPT (Calbiochem) were applied to cultured CRC cells to inhibit its γ-secretase activity.

Notch receptor = Notch receptor cleavage (NICD) after EDTA treatment, IP-western; assay type: cell-based, human; details: 10 mM EDTA; anti-Notch1 (C-term) antibody
Protocol: as §3
ABL1B cDNA was prepared from cDNA pool of human colon and tagged with hemaglutinin (HA) sequence to construct ABL1B-HA. The wild-type cDNA was mutagenized by QuikChange Lightning Multi Site-Directed Mutagenesis Kit (Agilent) to derive kinase-dead ABL1B(K290R)-HA mutant. These ABL1B constructs were placed into pEFBosneo expression vector (provided by Shigekazu Nagata, Kyoto University, Japan). DAB1-Flag cDNA was inserted into pcDNA3 (Invitrogen). TRIO cDNA (provided by Anne Debant, CRBM-CNRS, France) was tagged with T7 sequence and inserted into pCX expression vector carrying CAG promoter and rabbit β-globin poly(A) (provided by Masaru Okabe, Osaka University, Japan). NICD-Myc expression vector was provided by Tasuku Honjo, Kyoto University, Japan. These expression vectors were transfected into CRC or HEK293T cells using Lipofectamine LTX (Invitrogen). Sixteen hours post-transfection, the cells were lysed in lysis buffer (10 mM Tris-Cl, 1 mM EDTA, 150 mM NaCl and 1% NP-40). The supernatants were mixed with agarose conjugated with anti-HA, Flag, T7, or Myc antibodies (MBL). […]

HCT116 cells [4] = assay: Attachment assay of CRC cells to lung endothelial cell layer; assay type: cell-based, human
Protocol: Attachment assay was performed according to the established protocol {Reymond, 2012}. Briefly, human lung endothelial cells were plated onto collagen-coated dish. After they reached confluent to form a layer, EGFP-labeled CRC cells were plated onto it. Fifteen minutes later, floating cells were washed with PBS, and the numbers of CRC cells adhering to the endothelial layer were counted under a fluorescent microscope.

[5] = test system: Apc/Aes compound mutant mice; assay: Tumor invasion histopathology in Apc/Aes compound mutant mice; assay type: in vivo, mouse; details: 50 mg/kg/day i.p. for 9 weeks
From the text: Apc^+/Δ716 mutant mice were generated and maintained as described previously {Oshima, 1995}. Apc^+/Δ716Aes^Floxed/FloxedvCre^ERT2 (abbreviated as Apc/Aes) mice were constructed as reported to knockout Aes in Apc^+/Δ716 mice by virtue of Cre^ERT2 whose expression is driven by intestinal epithelium-specific villin promoter {Sonoshita, 2011}. Rbpj floxed allele was constructed as reported {Han, 2002}, obtained from RIKEN BRC, and crossed with Apc/Aes mice to derive Apc^+/Δ716Aes^Floxed/FloxedRbpj^Floxed/FloxedvCre^ERT2 (Apc/Aes/Rbpj) mice. Dab1 floxed allele was constructed (Imai et al., in preparation) and crossed with Apc/Aes mice to obtain Apc^+/Δ716Aes^Floxed/FloxedDab1^Floxed/FloxedvCre^ERT2 (Apc/Aes/Dab1) mice. Tumor histopathology in compound mutant mice was analyzed at 12 weeks of age. […] Total of ˜100 tumors with diameters larger than 2 mm from 5 mice were scored for each mutant genotype. CRC cell lines were obtained from ATCC. Upon transplantation into the rectal smooth muscle, CRC cells formed a visible primary tumor within a week. Six weeks later, mice were euthanized and examined for metastatic foci under a fluorescent microscope (Leica). All animal experiments were conducted according to the protocol approved by the Animal Care and Use Committee of Kyoto University.

TRIO = assay: Cell-free RhoGEF GTP exchange assay; assay type: biochemical, human; details: TRIO(WT) from imatinib-treated HEK293T transfectants; recombinant RhoA, mant-GTP, 10 min
From the text: First, we transfected HEK293T cells with an expression plasmid for T7-TRIO (either WT, Y2681F or G2699V), and pulled-down each TRIO protein from cell lysates using agarose conjugated with anti-T7 antibody (MBL). Then we mixed the TRIO fraction with recombinant RhoA in the presence of mant-GTP (Cytoskeleton) that emits stronger fluorescence when bound to Rho small GTPases (Rossman et al., 2002).

Which “effect on the RKO cell invasion in culture” value (RKO human CRC cells [1]; RKO cell invasion in culture, FIG. 10A) does the source give for `CC(C)(C)n1nc(-c2ccc(Cl)cc2)c2c(N)ncnc21` [PP2] here?
Its value is ~20%.

What about the “Matrigel invasion of RKO cells” value (RKO human CRC cells [1]) of the same compound?
Its value is “only a minor inhibition”.

What about the Matrigel invasion (HCT116 cells [2]; PP2 at 10 μm, FIG. 10A) of the same compound?
Its Matrigel invasion is “only a minor effect”.

For `CCN(CC)CCCC(C)Nc1nc(C)cc(Nc2ccc3nc(C)cc(N)c3c2)n1` (centres unmarked) [NSC23766], which “Matrigel invasion of RKO cells” value (RKO human CRC cells [1]) is on record?
Its value is “did not affect”.

And the “Matrigel invasion of RKO cells” value (RKO human CRC cells [1]; listed as NSC27366)?
Its value is “Little effect”.

For `C[C@@H](N)[C@H]1CC[C@H](C(=O)Nc2ccncc2)CC1` [Y-27632], which “Matrigel invasion of RKO cells” value (RKO human CRC cells [1]) is on record?
The value was “suppresses”.

What about the “Transendothelial migration (TEM) of HCT116 cells” value (HCT116) of the same compound?
The value was “suppressed”.

What about the “Matrigel invasion of HCT116 cells” value (HCT116 cells [2]; HCT116, data not shown) of the same compound?
Its value is “suppressed”.

What about the “Transendothelial migration (TEM) of RKO cells” value (RKO human CRC cells [3]) of the same compound?
Its value is “suppresses”.

`Cc1nc(Nc2ncc(C(=O)Nc3c(C)cccc3Cl)s2)cc(N2CCN(CCO)CC2)n1.O` [dasatinib, N-(2-chloro-6-methylphenyl)-2-[[6-[4-(2-hydroxyethyl)-1-piperazinyl]-2-methyl-4-pyrimidinyl]amino]-5-thiazole carboxamide monohydrate] was tested. Which “Matrigel invasion of RKO cells” value (RKO human CRC cells [1]) did it give?
Its value is “suppressed the invasion significantly”.

What about the “HCT116 cell invasion in Matrigel” value (HCT116 cells [2]; dasatinib at 0.01 μm, FIG. 10A) of the same compound?
The value was “tight suppression”.

How did the “DAB1 mRNA expression” value (DAB1; LS174T on immobilized rDLL4 0.1-1 μg/cm^2, 4 h, dose-dependent) turn out when “rDLL4: recombinant extracellular domain of Notch ligand DLL4 (R&D), immobilized on dish surface” was run?
Its value is “increased; also recorded: induces”.

What about the “Rho activation (GTP-Rho)” value (Rho; cultured CRC cells on dishes coated with rDLL4) of the same compound?
The value was “activated”.

Which results are given for `C[C@H](NC(=O)Cc1cc(F)cc(F)c1)C(=O)N[C@H](C(=O)OC(C)(C)C)c1ccccc1` [DAPT]?
DAB1 mRNA expression induced by rDLL4 (DAB1; LS174T, 10 μM DAPT for 24 h, rDLL4-coated dishes, 4 h): inhibited; Cleaved Notch receptor (NICD) upon EDTA treatment (Notch receptor): blocked; also recorded: inhibited; Rho activation (GTP-Rho) after Notch receptor activation with EDTA (Rho; RKO cells, 10 μM DAPT for 12 h, then 10 mM EDTA): inhibited; also recorded: Suppression; Number of CRC cells remaining attached to the EC layer (HCT116 cells [4]; HCT116 treated 2 hours, washing at 15 min post plating): reduced; EC adhesion of CRC cells with RBPJ knocked-down (HCT116 cells [4]; RBPJ-knockdown HCT116, DAPT 2 hours): prevented

For `Cc1ccc(NC(=O)c2ccc(CN3CCN(C)CC3)cc2)cc1Nc1nccc(-c2cccnc2)n1` [imatinib, 4-(4-methylpiperazin-1-ylmethyl)-N-[4-methyl-3-(4-(pyridin-3-yl)-pyrimidin-2-ylamino-)phenyl]-benzamide], which “tumor size or number” value [5] is on record?
Its value is “without changing”.

What about the “CRC invasion (depth of tumor invasion)” value ([5]; 50 mg/kg/day) of the same compound?
Its value is “significant suppression; also recorded: suppresses”.

What about the “Matrigel invasion of RKO cells” value (RKO human CRC cells [1]) of the same compound?
Its value is “blocks”.

And the “Rho activation (GTP-Rho) induced by EDTA” value (Rho; RKO cells, pull-down 5 minutes after EDTA, dose-dependent)?
Its value is “blocked; also recorded: inhibits”.

What about the “Capacity of Rho activation (RhoGEF activity) of TRIO(WT) purified from imatinib-treated cells” value (TRIO) of the same compound?
Its value is “significantly decreased”.
